Experimental data taken from paper PMC7047876, “Potent Chimeric Antimicrobial Derivatives of the Medicago truncatula NCR247 Symbiotic Peptide” (Frontiers in Microbiology, 2020).
Converted amounts (≈) assume the structure as drawn. Where two headings read alike, the source gives them in different places. Peptide text beside a SMILES is read from it.

Tests used:
Type in all cases: cell-based
Acinetobacter baumannii = system: Acinetobacter baumannii
Excerpt: (§1) The pathogenic bacterial strains obtained from the ATCC (United States) and NCTC (National Collection of Type Cultures – England) were the Gram-positive: Enterococcus faecalis (ATCC 29212), Staphylococcus aureus (HNCMO112011), Listeria monocytogenes (ATCC 19111) and the Gram-negative: Pseudomonas aeruginosa (ATCC 27853), Escherichia coli (ATCC 8739), Salmonella enterica (ATCC 13076), Klebsiella pneumoniae (NCTC 13440), Acinetobacter baumannii (ATCC 17978).
(§2) Ca^2+ and Mg^2+ can inhibit the antimicrobial activity of cationic peptides, therefore the MBC and MIC values were also determined in MHB, which unlike PPB contains divalent cations and allows growth of bacteria. Bacteria were grown and prepared similarly except that bacteria were resuspended in MHB. 10 μl of bacteria OD600 = 0.1, supplemented with 45 μl MHB and 45 μl of 2-fold dilution series of peptides, were cultivated for 3 and 20 h at 37°C with shaking. Optical density of each sample was measured (Hidex Sense Microplate Reader with Plate Reader Software version 5064) and 5 μl was placed on LB agar plates after 3 and 20 h treatment. The minimal inhibitory concentration (MIC) corresponded to the lowest concentration, which inhibited growth.

Escherichia coli = system: Escherichia coli
Excerpt: as §1, §2

Staphylococcus aureus = system: Staphylococcus aureus
Excerpt: as §1, §2

[1] = system: Klebsiella pneumoniae (NCTC 13440); assay: microbe, parasite or virus in culture; conditions: read-out: Minimal bactericidal concentration (MBC) K. p.
Excerpt: as §1
(§3) Overnight bacterial cultures grown in LB were diluted and grown to OD600 = 0.2–0.6 at 37°C with shaking. After harvesting and washing bacteria in PPB, the suspensions were adjusted to OD600 = 0.1 corresponding to ∼10^7 bacteria/mL. Antimicrobial activity of the peptides and the antibiotics was determined in PPB in 96 well microplates using 10 μL bacterial suspension and 90 μL of the 2-fold serial dilutions of peptides or antibiotics. Peptides were tested from 25 μM to 0.125 μM whereas the antibiotics; carbenicillin (Cb) from Duchefa Biochemie (Prod.No. C0109.0025) and levofloxacin (Lvx) from Sigma-Aldrich (Prod.No. 28266-10MG-F) from […] to 0.1 μM. The microplates were incubated for 3 h at 37°C with 250 rpm shaking and then 5 μl from each sample was placed on LB agar and the growth of bacteria was monitored after overnight incubation at 37°C. The lowest concentration of the antimicrobial agents, which completely eliminated viable bacteria was the minimal bactericidal concentration (MBC).

[2] = system: Listeria monocytogenes (ATCC 19111); assay: microbe, parasite or virus in culture; conditions: read-out: Minimal bactericidal concentration (MBC) L. m.
Excerpt: as §1, §3

[3] = system: Staphylococcus aureus (HNCMO112011); assay: microbe, parasite or virus in culture; conditions: read-out: Minimal bactericidal concentration (MBC) S. a.
Excerpt: as §1, §3

[4] = system: Escherichia coli (ATCC 8739); assay: microbe, parasite or virus in culture; conditions: read-out: Minimal bactericidal concentration (MBC) E. c.
Excerpt: as §1, §3

[5] = system: Enterococcus faecalis (ATCC 29212); assay: microbe, parasite or virus in culture; conditions: read-out: Minimal bactericidal concentration (MBC) E. f.
Excerpt: as §1, §3

[6] = system: Salmonella enterica (ATCC 13076); assay: microbe, parasite or virus in culture; conditions: read-out: Minimal bactericidal concentration (MBC) S. e.
Excerpt: as §1, §3

[7] = system: Pseudomonas aeruginosa (ATCC 27853); assay: microbe, parasite or virus in culture; conditions: read-out: Minimal bactericidal concentration (MBC) P. a.
Excerpt: as §1, §3

[8] = system: Acinetobacter baumannii (ATCC 17978); assay: microbe, parasite or virus in culture; conditions: read-out: Minimal bactericidal concentration (MBC) A. b.
Excerpt: as §1, §3

[9] = MHB, 3 h treatment, 37°C (panel assigned)
[10] = MHB, 20 h cultivation, 37°C, optical density (panel assigned)
[11] = MHB, 20 h treatment, 37°C (panel assigned)
[12] = 3 h treatment in PPB (20 mM potassium-phosphate buffer, pH 7.4), 37°C, then plating on LB agar

Compound | MBC in Mueller Hinton Broth, panel (A), A. b. (Acinetobacter baumannii; [9]) | MIC in Mueller Hinton Broth, panel (C), A. b. (Acinetobacter baumannii; [10]) | MBC in Mueller Hinton Broth, panel (B), A. b. (Acinetobacter baumannii; [11]) | MBC in Mueller Hinton Broth, panel (A), E. c. (Escherichia coli; [9]) | MIC in Mueller Hinton Broth, panel (C), E. c. (Escherichia coli; [10]) | MBC in Mueller Hinton Broth, panel (B), E. c. (Escherichia coli; [11]) | MBC in Mueller Hinton Broth, panel (A), S. a. (Staphylococcus aureus; [9]) | MIC in Mueller Hinton Broth, panel (C), S. a. (Staphylococcus aureus; [10]) | MBC in Mueller Hinton Broth, panel (B), S. a. (Staphylococcus aureus; [11]) | MBC [1, 12] | MBC [2, 12] | MBC [3, 12] | MBC [4, 12] | MBC [5, 12] | MBC [6, 12] | MBC [7, 12] | MBC [8, 12] | MBC in Mueller Hinton Broth, panel (A), A. b. (Acinetobacter baumannii; 3 h) | MBC in Mueller Hinton Broth, panel (B), A. b. (Acinetobacter baumannii; 20 h) | MIC in Mueller Hinton Broth, panel (C), A. b. (Acinetobacter baumannii; 20 h) | other results
CC[C@H](C)[C@H](NC(=O)[C@H](CCCCN)NC(=O)[C@H](CCCCN)NC(=O)[C@H](C)NC(=O)[C@H](CC(C)C)NC(=O)[C@H](C)NC(=O)[C@H](C)NC(=O)[C@H](CC(C)C)NC(=O)[C@H](C)NC(=O)[C@@H](N)CCCCN)C(=O)N[C@@H](CC(C)C)C(N)=O [I, X2] (H-KALAALAKKIL-NH2) | > 25 µM | 25 µM (≈ 28.5 µg/mL) | >25 µM | > 25 µM | >25 µM | >25 µM | > 25 µM | >25 µM | >25 µM | >25 µM | 25 µM (≈ 28.5 µg/mL) | 25 µM (≈ 28.5 µg/mL) | >25 µM | >25 µM | >25 µM | 6.3 µM (≈ 7.17 µg/mL) | 25 µM (≈ 28.5 µg/mL) | – | – | – | –
CC(C)C[C@H](NC(=O)[C@@H]1CCCN1C(=O)[C@H](CCCNC(=N)N)NC(=O)[C@H](CCCNC(=N)N)NC(=O)[C@H](CS)NC(=O)[C@H](CCC(N)=O)NC(=O)[C@@H](N)CCC(N)=O)C(=O)N[C@@H](Cc1ccc(O)cc1)C(=O)N[C@@H](CS)C(=O)N[C@@H](CCCNC(=N)N)C(=O)N[C@@H](CCCNC(=N)N)C(=O)N[C@@H](CCCNC(=N)N)C(N)=O [B, NCR247C] (H-QQCRRPLYCRRR-NH2; N-terminus assumed) | – | – | – | – | – | – | – | – | – | – | – | – | – | – | – | – | – | > 25 µM | >25 µM | >25 µM | MBC in Mueller Hinton Broth, panel (A), E. c. (Escherichia coli; 3 h): > 25 µM; MBC in Mueller Hinton Broth, panel (B), E. c. (Escherichia coli; 20 h): >25 µM; MIC in Mueller Hinton Broth, panel (C), E. c. (Escherichia coli; 20 h): >25 µM; MBC in Mueller Hinton Broth, panel (A), S. a. (Staphylococcus aureus; 3 h): > 25 µM; MBC in Mueller Hinton Broth, panel (B), S. a. (Staphylococcus aureus; 20 h): >25 µM; MIC in Mueller Hinton Broth, panel (C), S. a. (Staphylococcus aureus; 20 h): >25 µM; MBC ([1]; NCTC 13440, 3 h, pH 7.4): >25 µM; MBC ([2]; ATCC 19111, 3 h, pH 7.4): >25 µM; MBC ([3]; HNCMO112011, 3 h, pH 7.4): >25 µM; MBC ([4]; ATCC 8739, 3 h, pH 7.4): 6.3 µM (≈ 10.3 µg/mL); MBC ([5]; ATCC 29212, 3 h, pH 7.4): >25 µM; MBC ([6]; ATCC 13076, 3 h, pH 7.4): >25 µM; MBC ([7]; ATCC 27853, 3 h, pH 7.4): 25 µM (≈ 40.8 µg/mL); MBC ([8]; ATCC 17978, 3 h, pH 7.4): 25 µM (≈ 40.8 µg/mL)
CC(C)C[C@H](NC(=O)[C@@H]1CCCN1C(=O)[C@H](CCCNC(=N)N)NC(=O)[C@H](CCCNC(=N)N)NC(=O)[C@H](CS)NC(=O)[C@H](CCC(N)=O)NC(=O)[C@@H](N)CCC(N)=O)C(=O)N[C@@H](Cc1ccc(O)cc1)C(=O)N[C@@H](CS)C(=O)N[C@@H](CCCNC(=N)N)C(=O)N[C@@H](CCCNC(=N)N)C(=O)N[C@@H](CCCNC(=N)N)C(=O)N[C@@H](Cc1c[nH]c2ccccc12)C(=O)N[C@@H](CO)C(=O)N[C@@H](Cc1c[nH]cn1)C(=O)N1CCC[C@H]1C(=O)N[C@@H](CCC(N)=O)C(=O)N[C@@H](Cc1ccccc1)C(=O)N[C@@H](CCC(=O)O)C(=O)N[C@@H](CCCCN)C(N)=O [C, NCR247C-StrepII] (H-QQCRRPLYCRRRWSHPQFEK-NH2; N-terminus assumed) | – | – | – | – | – | – | – | – | – | – | – | – | – | – | – | – | – | > 25 µM | >25 µM | >25 µM | MBC in Mueller Hinton Broth, panel (A), E. c. (Escherichia coli; 3 h): > 25 µM; MBC in Mueller Hinton Broth, panel (B), E. c. (Escherichia coli; 20 h): >25 µM; MIC in Mueller Hinton Broth, panel (C), E. c. (Escherichia coli; 20 h): >25 µM; MBC in Mueller Hinton Broth, panel (A), S. a. (Staphylococcus aureus; 3 h): > 25 µM; MBC in Mueller Hinton Broth, panel (B), S. a. (Staphylococcus aureus; 20 h): >25 µM; MIC in Mueller Hinton Broth, panel (C), S. a. (Staphylococcus aureus; 20 h): >25 µM; MBC ([1]; NCTC 13440, 3 h, pH 7.4): >25 µM; MBC ([2]; ATCC 19111, 3 h, pH 7.4): >25 µM; MBC ([3]; HNCMO112011, 3 h, pH 7.4): 6.3 µM (≈ 16.8 µg/mL); MBC ([4]; ATCC 8739, 3 h, pH 7.4): 6.3 µM (≈ 16.8 µg/mL); MBC ([5]; ATCC 29212, 3 h, pH 7.4): >25 µM; MBC ([6]; ATCC 13076, 3 h, pH 7.4): >25 µM; MBC ([7]; ATCC 27853, 3 h, pH 7.4): 6.3 µM (≈ 16.8 µg/mL); MBC ([8]; ATCC 17978, 3 h, pH 7.4): 25 µM (≈ 66.9 µg/mL)
CC[C@H](C)[C@H](NC(=O)[C@H](CCCCN)NC(=O)[C@H](CCCCN)NC(=O)[C@H](C)NC(=O)[C@H](CC(C)C)NC(=O)[C@H](C)NC(=O)[C@H](C)NC(=O)[C@H](CC(C)C)NC(=O)[C@H](C)NC(=O)[C@H](CCCCN)NC(=O)[C@H](CC(C)C)NC(=O)[C@H](CC(N)=O)NC(=O)[C@@H](NC(=O)[C@H](CCCCN)NC(=O)CNC(=O)[C@H](CC(C)C)NC(=O)[C@H](CC(C)C)NC(=O)[C@H](Cc1ccc(O)cc1)NC(=O)CNC(=O)[C@H](C)NC(=O)[C@H](CO)NC(=O)[C@H](CC(N)=O)NC(=O)[C@H](CC(C)C)NC(=O)[C@@H](NC(=O)[C@H](Cc1c[nH]c2ccccc12)NC(=O)CN)[C@@H](C)O)[C@@H](C)CC)C(=O)N[C@@H](CC(C)C)C(N)=O [J, Transportan, reference compound] | 3.1 µM (≈ 8.81 µg/mL) | 3.1 µM (≈ 8.81 µg/mL) | 3.1 µM (≈ 8.81 µg/mL) | 6.3 µM (≈ 17.9 µg/mL) | 3.1 µM (≈ 8.81 µg/mL) | 6.3 µM (≈ 17.9 µg/mL) | 6.3 µM (≈ 17.9 µg/mL) | 3.1 µM (≈ 8.81 µg/mL) | 3.1 µM (≈ 8.81 µg/mL) | 3.1 µM (≈ 8.81 µg/mL) | 3.1 µM (≈ 8.81 µg/mL) | 3.1 µM (≈ 8.81 µg/mL) | 3.1 µM (≈ 8.81 µg/mL) | 3.1 µM (≈ 8.81 µg/mL) | 1.6 µM (≈ 4.54 µg/mL) | 3.1 µM (≈ 8.81 µg/mL) | 1.6 µM (≈ 4.54 µg/mL) | – | – | – | –
